# Key:
# Type in all cases: functional
# NCI/ADR-RES = experiment: Cytotoxicity against human NCI-ADR-RES cells assessed as cell growth at 0.1 uM after 48 hrs by SRB assay relative to control; settings: read-out: Activity
# Hs-578T [1] = experiment: Cytotoxicity against human Hs 578T cells assessed as cell growth at 100 uM after 48 hrs by SRB assay relative to control; settings: read-out: Activity
# HCC 2998 [2] = experiment: Cytotoxicity against human HCC2998 cells assessed as cell growth at 0.1 uM after 48 hrs by SRB assay relative to control; settings: HCC 2998, 48 h, read-out: Activity
# MDA-MB-435 [3] = experiment: Cytotoxicity against human MDA-MB-435 cells after 48 hrs by SRB assay; settings: MDA-MB-435, 48 h
# A549 [4] = experiment: Cytotoxicity against human A549 cells after 48 hrs by SRB assay; settings: A549, 48 h; for CC50: read-out: LC50 (the source's name)
# OVCAR-8 = experiment: Cytotoxicity against human OVCAR8 cells assessed as cell growth at 1 uM after 48 hrs by SRB assay relative to control; settings: OVCAR-8, 48 h, read-out: Activity
# HCC 2998 [5] = experiment: Cytotoxicity against human HCC2998 cells assessed as cell growth at 100 uM after 48 hrs by SRB assay relative to control; settings: HCC 2998, 48 h, read-out: Activity
# M14 = experiment: Cytotoxicity against human M14 cells assessed as cell growth at 1 uM after 48 hrs by SRB assay relative to control; settings: M14, 48 h, read-out: Activity
# UO-31 = experiment: Cytotoxicity against human UO31 cells after 48 hrs by SRB assay; settings: UO-31, 48 h
# HCT-15 = experiment: Cytotoxicity against human HCT15 cells assessed as cell growth at 0.1 uM after 48 hrs by SRB assay relative to control; settings: HCT-15, 48 h, read-out: Activity
# NCI-H522 = experiment: Cytotoxicity against human NCI-H522 cells assessed as cell growth at 1 uM after 48 hrs by SRB assay relative to control; settings: NCI-H522, 48 h, read-out: Activity
# MDA-MB-435 [6] = experiment: Cytotoxicity against human MDA-MB-435 cells assessed as cell growth at 0.1 uM after 48 hrs by SRB assay relative to control; settings: MDA-MB-435, 48 h, read-out: Activity
# HL-60(TB) = experiment: Cytotoxicity against human HL-60(TB) cells assessed as cell growth at 0.01 uM after 48 hrs by SRB assay relative to control; settings: HL-60, 48 h, read-out: Activity
# Hs-578T [7] = experiment: Cytotoxicity against human Hs 578T cells assessed as cell growth at 0.1 uM after 48 hrs by SRB assay relative to control; settings: read-out: Activity
# KM12 = experiment: Cytotoxicity against human KM12 cells assessed as cell growth at 1 uM after 48 hrs by SRB assay relative to control; settings: KM12, 48 h, read-out: Activity
# SW-620 = experiment: Cytotoxicity against human SW620 cells assessed as cell growth at 1 uM after 48 hrs by SRB assay relative to control; settings: SW-620, 48 h, read-out: Activity
# MCF7 = experiment: Cytotoxicity against human MCF7 cells assessed as cell growth at 100 uM after 48 hrs by SRB assay relative to control; settings: MCF7, 48 h, read-out: Activity
# K562 [8] = experiment: Cytotoxicity against human K562 cells after 48 hrs by SRB assay; settings: K562, 48 h
# NCI-H226 = experiment: Cytotoxicity against human NCI-H226 cells assessed as cell growth at 0.01 uM after 48 hrs by SRB assay relative to control; settings: NCI-H226, 48 h, read-out: Activity
# UACC-257 [9] = experiment: Cytotoxicity against human UACC257 cells assessed as cell growth at 100 uM after 48 hrs by SRB assay relative to control; settings: UACC-257, 48 h, read-out: Activity
# NCI-H460 = experiment: Cytotoxicity against human NCI-H460 cells after 48 hrs by SRB assay; settings: NCI-H460, 48 h
# A549 [10] = experiment: Cytotoxicity against human A549 cells assessed as cell growth at 0.1 uM after 48 hrs by SRB assay relative to control; settings: A549, 48 h, read-out: Activity
# MDA-MB-231 = experiment: Cytotoxicity against human MDA-MB-231 cells assessed as cell growth at 0.1 uM after 48 hrs by SRB assay relative to control; settings: MDA-MB-231, 48 h, read-out: Activity
# LOX IMVI = experiment: Cytotoxicity against human LOXIMVI cells assessed as cell growth at 100 uM after 48 hrs by SRB assay relative to control; settings: read-out: Activity
# K562 [11] = experiment: Cytotoxicity against human K562 cells assessed as cell growth at 0.1 uM after 48 hrs by SRB assay relative to control; settings: K562, 48 h, read-out: Activity
# HCT-116 = experiment: Cytotoxicity against human HCT116 cells assessed as cell growth at 0.01 uM after 48 hrs by SRB assay relative to control; settings: HCT-116, 48 h, read-out: Activity
# DU-145 = experiment: Cytotoxicity against human DU145 cells after 48 hrs by SRB assay; settings: DU-145, 48 h
# HOP-92 = experiment: Cytotoxicity against human HOP92 cells assessed as cell growth at 1 uM after 48 hrs by SRB assay relative to control; settings: HOP-92, 48 h, read-out: Activity
# MOLT-4 [12] = experiment: Cytotoxicity against human MOLT4 cells assessed as cell growth at 0.1 uM after 48 hrs by SRB assay relative to control; settings: MOLT-4, 48 h, read-out: Activity
# HT-29 [13] = experiment: Cytotoxicity against human HT-29 cells assessed as cell growth at 1 uM after 48 hrs by SRB assay relative to control; settings: HT-29, 48 h, read-out: Activity
# UACC-257 [14] = experiment: Cytotoxicity against human UACC257 cells assessed as cell growth at 1 uM after 48 hrs by SRB assay relative to control; settings: UACC-257, 48 h, read-out: Activity
# SNB-75 = experiment: Cytotoxicity against human SNB75 cells assessed as cell growth at 1 uM after 48 hrs by SRB assay relative to control; settings: SNB-75, 48 h, read-out: Activity
# HOP-62 = experiment: Cytotoxicity against human HOP62 cells assessed as cell growth at 0.1 uM after 48 hrs by SRB assay relative to control; settings: HOP-62, 48 h, read-out: Activity
# Malme-3M = experiment: Cytotoxicity against human MALME-3M cells after 48 hrs by SRB assay
# MOLT-4 [15] = experiment: Cytotoxicity against human MOLT4 cells assessed as cell growth at 0.01 uM after 48 hrs by SRB assay relative to control; settings: MOLT-4, 48 h, read-out: Activity
# HT-29 [16] = experiment: Cytotoxicity against human HT-29 cells assessed as cell growth at 0.1 uM after 48 hrs by SRB assay relative to control; settings: HT-29, 48 h, read-out: Activity
smiles,measurement,setting,value
N#CCCCCCn1cc(C2=C(c3cn(CCCCCC#N)c4ccccc34)C(=O)N(O)C2=O)c2ccccc21,growth at 0.1 µM,NCI/ADR-RES,92%
same,growth at 100 µM,Hs-578T [1],5%
same,growth at 0.1 µM,HCC 2998 [2],101%
same,GI50,MDA-MB-435 [3],2.74 µM
same,LC50,MDA-MB-435 [3],> 100 µM
same,TGI,MDA-MB-435 [3],8.31 µM
same,GI50,A549 [4],10.4 µM
same,TGI,A549 [4],> 100 µM
same,CC50,A549 [4],> 100 µM
same,growth at 1 µM,OVCAR-8,95%
same,growth at 100 µM,HCC 2998 [5],1%
same,growth at 1 µM,M14,89%
same,GI50,UO-31,1.76 µM
same,LC50,UO-31,> 100 µM
same,TGI,UO-31,90.1 µM
same,growth at 0.1 µM,HCT-15,93%
same,growth at 1 µM,NCI-H522,85%
same,growth at 0.1 µM,MDA-MB-435 [6],95%
same,growth at 0.01 µM,HL-60(TB),98%
same,growth at 0.1 µM,Hs-578T [7],91%
same,growth at 1 µM,KM12,102%
same,growth at 1 µM,SW-620,91%
same,growth at 100 µM,MCF7,-14%
same,GI50,K562 [8],3.59 µM
same,LC50 (concentration killing 50% of cells),K562 [8],> 100 µM
same,TGI,K562 [8],> 100 µM
same,growth at 0.01 µM,NCI-H226,95%
same,growth at 100 µM,UACC-257 [9],-19%
same,GI50,NCI-H460,5.05 µM
same,LC50,NCI-H460,> 100 µM
same,TGI,NCI-H460,33 µM
same,growth at 0.1 µM,A549 [10],102%
same,growth at 0.1 µM,MDA-MB-231,91%
same,growth at 100 µM,LOX IMVI,-9%
same,growth at 0.1 µM,K562 [11],91%
same,growth at 0.01 µM,HCT-116,102%
same,GI50,DU-145,27.8 µM
same,LC50 (50% lethal concentration),DU-145,> 100 µM
same,TGI,DU-145,> 100 µM
same,growth at 1 µM,HOP-92,109%
same,growth at 0.1 µM,MOLT-4 [12],81%
same,growth at 1 µM,HT-29 [13],106%
same,growth at 1 µM,UACC-257 [14],97%
same,growth at 1 µM,SNB-75,80%
same,growth at 0.1 µM,HOP-62,85%
same,GI50,Malme-3M,12 µM
same,LC50 (concentration killing 50% of cells),Malme-3M,> 100 µM
same,TGI,Malme-3M,62.8 µM
same,growth at 0.01 µM,MOLT-4 [15],87%
same,growth at 0.1 µM,HT-29 [16],103%
Cn1cc(C2=C(c3cn(C)c4ncccc34)C(=O)NC2=O)c2ccccc21,growth at 0.1 µM,NCI/ADR-RES,96%
same,growth at 100 µM,Hs-578T [1],-37%
same,growth at 0.1 µM,HCC 2998 [2],93%
same,GI50,MDA-MB-435 [3],0.648 µM
same,TGI,MDA-MB-435 [3],19.3 µM
same,GI50,A549 [4],3.49 µM
same,TGI,A549 [4],33.2 µM
same,CC50,A549 [4],> 100 µM
same,growth at 1 µM,OVCAR-8,95%
same,growth at 100 µM,HCC 2998 [5],-37%
same,growth at 1 µM,M14,110%
same,GI50,UO-31,2.46 µM
same,TGI,UO-31,25.3 µM
same,growth at 0.1 µM,HCT-15,103%
same,growth at 1 µM,NCI-H522,93%
same,growth at 0.1 µM,MDA-MB-435 [6],93%
same,growth at 0.01 µM,HL-60(TB),106%
same,growth at 0.1 µM,Hs-578T [7],81%
same,growth at 1 µM,KM12,82%
same,growth at 1 µM,SW-620,88%
same,growth at 100 µM,MCF7,-15%
same,GI50,K562 [8],2.74 µM
same,TGI,K562 [8],> 100 µM
same,growth at 0.01 µM,NCI-H226,99%
same,growth at 100 µM,UACC-257 [9],-12%
same,GI50,NCI-H460,3.8 µM
same,TGI,NCI-H460,22 µM
same,growth at 0.1 µM,A549 [10],94%
same,growth at 0.1 µM,MDA-MB-231,104%
same,growth at 100 µM,LOX IMVI,-18%
same,growth at 0.1 µM,K562 [11],102%
same,growth at 0.01 µM,HCT-116,106%
same,GI50,DU-145,6.24 µM
same,TGI,DU-145,36.2 µM
same,growth at 1 µM,HOP-92,76%
same,growth at 0.1 µM,MOLT-4 [12],119%
same,growth at 1 µM,HT-29 [13],93%
same,growth at 1 µM,UACC-257 [14],112%
same,growth at 1 µM,SNB-75,32%
same,growth at 0.1 µM,HOP-62,103%
same,GI50,Malme-3M,5.47 µM
same,TGI,Malme-3M,52.4 µM
same,growth at 0.01 µM,MOLT-4 [15],103%
same,growth at 0.1 µM,HT-29 [16],107%
